Results as given in patent publication USRE30149E, “Preparation of antifibrinolytically active isomer of 4-aminomethylcyclohexane carboxylic acid” (AB Kabi, priority 1963, dated 1979).

Experiments:
[1] = test system: streptokinase-induced fibrinolysis (fibrinogen, plasminogen, thrombin system); test: in vitro antifibrinolytic activity, 50% inhibition of streptokinase-induced fibrinolysis; format: biochemical; conditions: for Actual amount of compound for 50% inhibition of 6 units of streptokinase: fibrinogen, plasminogen, thrombin plus 6 units of streptokinase
Protocol: Antifibrinolytic activity quantitative assay was conducted by a technique utilizing the procedures described by Christensen, L. E. in J. clin. Invest., volume 28 (1949), page 163, and Wasserman, A. E., et al. in J. Lab. clin. Med., volume 4 (1953), page 812. […] The system consists of fibrinogen, plasminogen, and thrombin, to which is added 6 units of streptokinase which produces a lytic effect. The 50% inhibition studied corresponds to a lytic activity of 3 units of streptokinase. […] The time necessary for the formed plasmin to dissolve a standard fibrin coagulum is determined.
The following table furnishes the data on the in vitro antifibrinolytic activity of the several compounds considered in this specification, expressed as 50% inhibition of 6 units of streptokinase: […]

[2] = animal organism, i.e. the subject being treated; cited from earlier work
fibrinolysis = conditions: cited from earlier work

Compound | antifibrinolytic activity ([1]; evaluation of the two separate AMCHA isomers) | Actual amount of compound for 50% inhibition of 6 units of streptokinase ([1]; in vitro) | Relative activity ([1]; in vitro, 50% inhibition of 6 units of streptokinase, relative to EACA = 1) | excretion [2] | antifibrinolytic activity in clinical use (fibrinolysis)
NCC1CCC(C(=O)O)CC1 (single isomer, unassigned; isomer 4) [Inactive-AMCHA isomer, 4-aminomethyl-cyclohexane carboxylic acid] | practically devoid of any antifibrinolytic activity | 30 γ | – | – | –
NCC1CCC(C(=O)O)CC1 (single isomer, unassigned; isomer 4) [Isomeric AMCHA, comprising 10% active isomer, 4-aminomethyl-cyclohexane carboxylic acid] | – | 2 γ | – | – | –
NCCCCCC(=O)O [EACA, epsilon-aminocaproicacid] | – | 4 γ | 1 | so rapidly excreted | acceptable degree of antifibrinolytic activity
NCC1CCC(C(=O)O)CC1 (single isomer, unassigned; isomer 4) [Active-AMCHA isomer, 4-aminomethyl-cyclohexane carboxylic acid] | – | 0.2 γ | – | – | –
